In PubChem BioAssay AID651786 (The Scripps Research Institute Molecular Screening Center, 2012):
Active and inactive are the calls of the source.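 The calls were made as follows: active = IC50 at or below 10 µM; inactive = IC50 above 10 µM.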

Molecular target: Nuclear receptor coactivator 1 (Homo sapiens) (UniProt Q15788)
Assay: inhibition of GAL4-SRC1 reporter transcription – cell-based, HEK293, GAL4-SRC1 luciferase, powder samples, selectivity assay for SRC3 inhibitor project, late-stage follow-up (AID 651786)
Conditions: luminescence

Nuclear receptor coactivator 1 (Homo sapiens), sequence (Q15788 whole entry, looked up, the tested form may be a part): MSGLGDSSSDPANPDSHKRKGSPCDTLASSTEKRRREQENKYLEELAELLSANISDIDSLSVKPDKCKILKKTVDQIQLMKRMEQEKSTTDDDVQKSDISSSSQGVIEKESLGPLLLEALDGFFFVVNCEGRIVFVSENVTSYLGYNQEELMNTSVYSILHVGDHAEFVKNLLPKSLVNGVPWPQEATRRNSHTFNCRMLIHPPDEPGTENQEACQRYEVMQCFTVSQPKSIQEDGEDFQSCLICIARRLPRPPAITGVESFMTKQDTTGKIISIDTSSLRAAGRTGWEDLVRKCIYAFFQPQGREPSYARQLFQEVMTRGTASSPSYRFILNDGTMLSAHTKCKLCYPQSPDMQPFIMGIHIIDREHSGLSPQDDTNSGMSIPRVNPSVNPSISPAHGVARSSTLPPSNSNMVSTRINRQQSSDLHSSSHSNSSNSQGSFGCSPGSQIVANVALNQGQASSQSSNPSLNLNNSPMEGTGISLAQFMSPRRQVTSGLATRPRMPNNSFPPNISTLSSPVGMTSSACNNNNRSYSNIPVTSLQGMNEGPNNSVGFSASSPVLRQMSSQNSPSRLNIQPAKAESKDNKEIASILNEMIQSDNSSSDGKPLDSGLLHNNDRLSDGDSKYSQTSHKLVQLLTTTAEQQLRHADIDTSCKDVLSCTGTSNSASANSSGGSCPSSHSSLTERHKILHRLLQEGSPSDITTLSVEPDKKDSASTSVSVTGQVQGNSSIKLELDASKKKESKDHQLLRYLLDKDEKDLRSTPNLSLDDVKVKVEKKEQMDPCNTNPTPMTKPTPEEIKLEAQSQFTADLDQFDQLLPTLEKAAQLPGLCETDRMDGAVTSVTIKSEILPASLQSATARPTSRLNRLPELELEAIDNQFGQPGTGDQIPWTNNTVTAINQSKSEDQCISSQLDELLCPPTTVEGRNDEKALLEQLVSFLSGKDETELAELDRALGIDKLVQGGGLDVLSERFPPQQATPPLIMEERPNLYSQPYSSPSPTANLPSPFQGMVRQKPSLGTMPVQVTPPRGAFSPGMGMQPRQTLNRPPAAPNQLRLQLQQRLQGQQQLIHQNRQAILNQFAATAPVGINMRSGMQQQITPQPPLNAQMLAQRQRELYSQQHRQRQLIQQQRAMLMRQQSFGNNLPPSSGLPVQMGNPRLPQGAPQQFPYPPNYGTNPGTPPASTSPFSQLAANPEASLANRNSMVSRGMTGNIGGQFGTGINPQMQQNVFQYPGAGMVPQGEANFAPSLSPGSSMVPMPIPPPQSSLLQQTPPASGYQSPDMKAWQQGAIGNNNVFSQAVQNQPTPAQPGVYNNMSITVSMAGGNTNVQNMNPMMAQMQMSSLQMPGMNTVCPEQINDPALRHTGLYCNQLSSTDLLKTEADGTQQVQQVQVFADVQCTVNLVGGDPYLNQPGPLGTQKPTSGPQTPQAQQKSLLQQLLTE

Row | SMILES | IC50
1 | O=C(COC(=O)c1ccc[nH]c1=O)Nc1ccc(N2CCCCC2)cc1 | > 35.9 µM (inactive)
2 | Cc1ccc(OCC(=O)c2cc(C)n(-c3ccccc3)c2C)c([N+](=O)[O-])n1 | inactive
3 | CC(C)(C)c1ccc(-c2noc(CCC(=O)Nc3cccnc3)n2)cc1 | > 35.9 µM (inactive)
4 | CN1C(=O)C2(C(C#N)=C(N)N(c3cc(Cl)cc(Cl)c3)C3=C2C(=O)CC(C)(C)C3)c2ccccc21 (stereo not drawn) | > 35.9 µM (inactive)
5 | OCCN1CCN(C(=S)c2ccc(-c3ccccc3)cc2)CC1 | 3.01 µM
6 | CN1C(=O)C2(C(C#N)=C(N)N(c3cc(Cl)cc(Cl)c3)C3=C2C(=O)CCC3)c2ccccc21 (stereo not drawn) | > 35.9 µM (inactive)
7 | CCCNC(=O)c1nnsc1S(=O)(=O)c1ccc(Cl)cc1 | 6.16 µM
8 | O=C(Nc1ccccc1Oc1ccccc1)c1cc([N+](=O)[O-])ccc1Cl | 6.87 µM
